The subject of test [1] is osteoporosis rats. Put plainly: Bone phosphorus level, osteoporosis rats (Example 24). The class given is in vivo. Conditions: male rats; CSO low-dose (3.8 mg/kg)+calcium acetate 158 mg/kg; compared with model group, P<0.05, P<0.01. The procedure: (§1) Ninety female SD rats weighing 200-220 g were used. The rats adapted to the environment for 3 d. Fasting but freely taking water for 24 h before surgery. Rats were injected intraperitoneally with 3% chloral hydrate and anesthetised. Ten […] were used as the sham-operated group with longitudinal incisions on the skin and muscle from both sides of the lumbar and dorsal spine without removing the ovaries. For the other animals, longitudinal incisions were made from both sides of the lumbar and dorsal spine to cut the skin and muscle, and both ovaries were removed, and the wounds were sutured. All animals were intramuscular injected with penicillin for 3 consecutive days after operation. (Male rats were operated with the same method to remove testicles).
(§2) On the second day after surgery, ovariectomized rats were randomly divided into 8 groups with […] in each group:
(§3) On the second day after surgery, rats were given by intragastric administration with an administration volume of 0.2 mL/100 g. The sham-operated group and model group were given in the same volume of normal saline. […]
(§4) The rats were sacrificed, and the femur on both sides was separated. The right femur was taken and measured for the following indexes: bone weight coefficient (g/100 g body weight), bone density, ash level, bone calcium or bone phosphorus, bone hydroxyproline, HE pathology. […]

In test [2] the test system is osteoporosis rats. Put plainly: Femoral ash level, osteoporosis rats (Example 24). The class given is in vivo. Conditions: male rats; CSO high, medium and low dose (15, 7.5, 3.8 mg/kg)+calcium acetate 158 mg/kg; compared with model group, P<0.01, P<0.05. The procedure: as §1, §2, §3, §4

With `CC(=O)[O-].CC(=O)[O-].[Ca+2]` [Ca, Calcium acetate], in the test on osteoporosis rats [1], the bone phosphorus level entry is on record as “significantly increased”. In addition, the “level of femoral ashes” value in the test with osteoporosis rats [2] is “significantly increased”.

Source of the values: patent US12624128B2, “Low molecular weight chondroitin sulfate, composition, preparation method and use thereof” (NANJING HANXIN PHARMACEUTICAL TECHNOLOGY CO., LTD., priority 2019, dated 2026).
